Reference: US20070155659A1, “Use of somatostatin or one of its analogues for preparing a medicament intended to regulate the ovarian follicular reserve in non-menopausal women” (Societe de Conseils de Recherches et D'Application, priority 2003, published 2007)
Where a SMILES comes first, the peptide text is derived from it. [ ]: non-standard residue; d: D form. Tic = O=C(O)[C@@H]1Cc2ccccc2CN1; Abu = CC[C@H](N)C(=O)O

What was measured:
[1] = tested on: primordial follicles of ovarian cortex; assay: Culture of ewe ovarian cortex fragments for 10 days: start of growth of primordial follicles; type: cell-based; details: for start of growth of the primordial follicles: 10 days culture, vs control fragments; for number of primary follicles / number of primordial follicles over time: D0-D10
Method: Ovaries of adult ewes are collected immediately after slaughter. The ovaries are placed in an organ transport medium without serum (X-vivo, Bio Whittaker, Walkersville, Md., USA) at 10° C. and transported to the laboratory. Approximately 1 h after removal, the cortex is isolated from the medulla then fractionated into slices of 2 mm thickness (1 cm^2, average weight of 212 mg) after rinsing in new X-vivo. The cortex fragments are cultured in an oven under 5% oxygen for 10 days in well plates in the presence of DMEM. The medium is changed every 2 days.
The procedure used is the same as for Example 1, except that the somatostatin is replaced with one of its agonist analogues, namely the synthetic peptide of formula c[Tic-Tyr-DTrp-Lys-Abu-Phe] (hereafter AG1 peptide).
The procedure used is the same as for Example 1, except that the somatostatin is replaced by one of its antagonist analogues, namely the synthetic peptide of formula Cpa-c(DCys-3-Pal-DTrp-NMeLys-Thr-Cys)-2-Nal-NH2 (hereafter ANT1 peptide).

[2] = tested on: pituitary cells producing LH and FSH; preovulatory follicles; details: rats, in vivo administration; cited from earlier work
granulosa cells [3] = details: in vitro, model of granulosa cells; cited from earlier work
granulosa cells [4] = details: pig granulosa cells; cited from earlier work
preovulatory oocyte = details: pigs; cited from earlier work
[5] = tested on: granulosa cells from preovulatory follicles; details: women, in vitro; cited from earlier work
[6] = women, in vivo; cited from earlier work
[7] = co-administered with FSH; infertile patients with polycystic ovary syndrome; cited from earlier work
[8] = Envisaged case: patient with polycystic ovary syndrome treated with lanreotide acetate; type: in vivo, women; details: 120 mg/month

CC[C@@H]1NC(=O)[C@H](CCCCN)NC(=O)[C@@H](Cc2c[nH]c3ccccc23)NC(=O)[C@H](Cc2ccc(O)cc2)NC(=O)[C@@H]2Cc3ccccc3CN2C(=O)[C@H](Cc2ccccc2)NC1=O [AG1 peptide, c[Tic-Tyr-DTrp-Lys-Abu-Phe]] (cyclo([Tic]Y[dW]K[Abu]F))
start of growth of the primordial follicles ([1]; AG1 peptide 10^−9 M, FIG. 4): very significantly inhibits
number of primary follicles ([1]; AG1 peptide 10^−9 M, FIG. 4): absence of increase
number of primordial follicles over time ([1]; AG1 peptide 10^−9 M, FIG. 4): maintenance over time

C[C@H](N)C(=O)NCC(=O)N[C@H]1CSSC[C@@H](C(=O)O)NC(=O)[C@H](CO)NC(=O)[C@H]([C@@H](C)O)NC(=O)[C@H](Cc2ccccc2)NC(=O)[C@H]([C@@H](C)O)NC(=O)[C@H](CCCCN)NC(=O)[C@H](Cc2c[nH]c3ccccc23)NC(=O)[C@H](Cc2ccccc2)NC(=O)[C@H](Cc2ccccc2)NC(=O)[C@H](CC(N)=O)NC(=O)[C@H](CCCCN)NC1=O [SST14]
start of growth of the primordial follicles ([1]; SST14 10^−9 M to 10^−6 M, FIGS. 1 and 2): very significantly inhibits
number of primordial follicles over time ([1]; SST14 10^−9 M to 10^−6 M, FIG. 1): maintenance over time
number of primary follicles ([1]; SST14 10^−9 M to 10^−6 M, FIG. 2): absence of increase

C[C@H](N)C(=O)NCC(=O)N[C@H]1CSSC[C@@H](C(=O)O)NC(=O)[C@H](CO)NC(=O)[C@H]([C@@H](C)O)NC(=O)[C@H](Cc2ccccc2)NC(=O)[C@H]([C@@H](C)O)NC(=O)[C@H](CCCCN)NC(=O)[C@H](Cc2c[nH]c3ccccc23)NC(=O)[C@H](Cc2ccccc2)NC(=O)[C@H](Cc2ccccc2)NC(=O)[C@H](CC(N)=O)NC(=O)[C@H](CCCCN)NC1=O [SST]
number of pituitary cells producing LH and FSH and number of preovulatory follicles in the ovary [2]: seems to reduce
aromatase and production of progesterone, stimulated by FSH (granulosa cells [3]): inhibits
increase in cAMP induced by LH and forskolin (granulosa cells [4]): inhibits
nuclear maturation of the preovulatory oocyte (preovulatory oocyte): seems to inhibit
synthesis of IGF-BP1 and of progesterone [5]: inhibiting
secretion of LH by the pituitary, production of androgens and IGF-1 serum levels [6]: capable of reducing
serum levels of IGF-BP3 [6]: increases
follicle growth induced by the administration of FSH [7]: not however accompanied by a significant impact

CC(C)[C@@H]1NC(=O)[C@H](CCCCN)NC(=O)[C@@H](Cc2c[nH]c3ccccc23)NC(=O)[C@H](Cc2ccc(O)cc2)NC(=O)[C@@H](NC(=O)[C@H](N)Cc2ccc3ccccc3c2)CSSC[C@@H](C(=O)N[C@H](C(N)=O)[C@@H](C)O)NC1=O [lanreotide acetate]
ovarian volume and number of antral follicles (ultrasound) ([8]; 4th month of treatment): reduction
pregnancy test ([8]; 8th month of treatment): positive
periods ([8]; after 3 months of treatment): spontaneous periods
